Test [1] can be described thus: Luminescence Cell-Based Dose Confirmation HTS to Identify Activators of 5'UTR Stem-Loop Driven Alpha-Synuclein mRNA Translation in H4 Neuroglioblastoma Cells. [Related pubchem assays: 1829 (Project Summary), 1814 (Primary HTS)]. Type of test: functional.
Another test addresses CAAX prenyl protease 2 (Saccharomyces cerevisiae S288c, UniProt Q03530). Type of test: biochemical.
Test [2] can be described thus: Trypanosoma cruzi growth suppression in host cells – NIH3T3 host cells, beta-gal luminescence, confirmation (AID 2044).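 Note: intracellular parasites grown in NIH/3T3 mouse fibroblasts as host cells; luminescent beta-galactosidase reporter signal from transgenic T. cruzi replicating inside host cells; inhibitors lower the luminescence signal.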 Type of test: functional, cell-based.
A short description of test [3]: Luminescence Cell-Based Dose Response HTS to Identify Activators of Luciferase Translation or Activity in H4 […] Cells. [Related pubchem assays: 1829 (Project Summary), 1814 (Primary HTS)]. Type of test: functional.
For another test, the system named is H4. The test can be described thus: Luminescence Cell-Based Dose Response HTS to Identify Activators of 5'UTR Stem-Loop Driven Prion Protein mRNA Translation in H4 Neuroglioblastoma Cells. [Related pubchem assays: 1829 (Project Summary), 1814 (Primary HTS)]. Type of test: functional. The following applies: Homo sapiens.
The nature of test [4]: NIH3T3 cell viability loss – ATP luminescence, mouse fibroblasts, counter-screen, dose response (AID 2010).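 Note: cells exposed to compound for about 90 hours before reading.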 Type of test: functional, cell-based. A general note: The purpose of a counterscreen is to sort out artefacts and off-target activity.
Another test concerns T-cell. The test can be described thus: loss of vesicle association with mouse CD8+ T cells – mouse 2C CD8+ T cells, flow cytometry, dose response (AID 485284). Type of test: functional. (In general: Flow cytometry measures light scatter and fluorescence of single cells or particles in a stream.)
The next test deals with T1, Coagulation factor XII (Homo sapiens, UniProt P00748).
T1 sequence (P00748 whole entry): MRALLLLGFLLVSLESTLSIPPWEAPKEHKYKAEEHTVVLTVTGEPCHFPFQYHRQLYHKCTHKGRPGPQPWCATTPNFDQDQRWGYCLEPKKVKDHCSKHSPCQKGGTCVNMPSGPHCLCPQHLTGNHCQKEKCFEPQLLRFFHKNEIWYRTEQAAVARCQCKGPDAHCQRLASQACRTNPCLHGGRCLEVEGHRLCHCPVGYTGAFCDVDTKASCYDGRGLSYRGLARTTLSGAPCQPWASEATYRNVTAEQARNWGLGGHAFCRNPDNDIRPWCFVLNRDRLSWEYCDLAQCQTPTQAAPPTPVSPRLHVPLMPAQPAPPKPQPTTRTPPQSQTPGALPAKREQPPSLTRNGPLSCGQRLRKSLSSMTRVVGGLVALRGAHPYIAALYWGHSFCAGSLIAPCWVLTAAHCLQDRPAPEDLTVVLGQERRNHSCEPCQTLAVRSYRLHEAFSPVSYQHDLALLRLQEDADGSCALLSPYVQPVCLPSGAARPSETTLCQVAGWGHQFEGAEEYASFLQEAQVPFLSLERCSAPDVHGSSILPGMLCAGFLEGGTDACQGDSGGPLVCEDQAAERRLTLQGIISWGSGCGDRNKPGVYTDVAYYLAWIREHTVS
The test can be described thus: Factor XIIa Dose Response Confirmation from Single Well HTS. [Related pubchem assays (depositor defined):AID701]. Type of test: functional.

Another test addresses Integrin alpha-4 (Homo sapiens, UniProt P13612). The test can be described thus: allosteric modulators of alpha4 integrin VLA-4 – cell-based, LIBS antibody binding, flow cytometry, SAR follow-up (AID 488791). Type of test: functional.
Test [5] deals with T2, Dual specificity protein phosphatase 6 (Rattus norvegicus, UniProt Q64346).
T2 sequence (Q64346 whole entry): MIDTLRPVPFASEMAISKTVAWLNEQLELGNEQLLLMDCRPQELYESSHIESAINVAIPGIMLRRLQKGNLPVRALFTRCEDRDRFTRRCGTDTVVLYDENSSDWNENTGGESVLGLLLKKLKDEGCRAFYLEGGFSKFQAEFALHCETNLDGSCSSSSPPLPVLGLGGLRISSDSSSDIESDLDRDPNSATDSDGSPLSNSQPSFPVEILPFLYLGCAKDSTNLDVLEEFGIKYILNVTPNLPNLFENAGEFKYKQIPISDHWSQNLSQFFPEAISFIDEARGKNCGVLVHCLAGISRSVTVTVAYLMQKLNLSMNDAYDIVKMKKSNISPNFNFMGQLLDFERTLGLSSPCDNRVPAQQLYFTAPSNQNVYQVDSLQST
Type of test: functional.

Test [6] addresses Dual specificity protein phosphatase 3 (Homo sapiens, UniProt P51452). The test can be described thus: SAR VHR1 Fluorescent Assay for In Vitro dose response studies Set 2. [Related pubchem assays (depositor defined):AID1654, AID1661, AID1878]. Type of test: functional.
In test [7] the target is Delta-type opioid receptor (Homo sapiens, UniProt P41143). The test can be described thus: SAR Analysis of Antagonists of the DOR Receptor using an Image-Based Assay - Set 3. [Related pubchem assays (depositor defined):AID1777, AID1785]. Type of test: functional.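 Note: U2OS cells expressing DOR1 and beta-arrestin GFP stimulated with 100 nM SNC80; imaging of GFP-tagged beta-arrestin moving into spots after receptor activation.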
The target of test [8] is T3, Kappa-type opioid receptor (Homo sapiens, UniProt P41145). The test can be described thus: SAR analysis of small molecule antagonists of the kappa opioid receptor via a luminescent beta-arrestin assay - Set 3. [Related pubchem assays (depositor defined):AID1777, AID1778, AID1785, AID1786, AID1966, AID2133, AID2136, AID2285, AID2495]. Type of test: functional.
T3 sequence (P41145 whole entry): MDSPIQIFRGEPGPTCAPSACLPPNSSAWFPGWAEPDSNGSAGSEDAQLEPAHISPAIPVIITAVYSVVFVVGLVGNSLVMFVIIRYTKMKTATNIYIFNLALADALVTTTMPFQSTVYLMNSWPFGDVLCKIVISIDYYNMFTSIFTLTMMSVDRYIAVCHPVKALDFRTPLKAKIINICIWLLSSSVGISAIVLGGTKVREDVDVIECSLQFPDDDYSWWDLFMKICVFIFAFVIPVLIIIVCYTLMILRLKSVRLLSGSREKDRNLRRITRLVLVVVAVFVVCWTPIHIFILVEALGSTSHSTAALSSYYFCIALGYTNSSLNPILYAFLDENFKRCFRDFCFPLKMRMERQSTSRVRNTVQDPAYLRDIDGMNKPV
The target of another test is Mu-type opioid receptor (Homo sapiens, UniProt P35372). The test can be described thus: SAR Analysis of Antagonists of the MOR Receptor using an Image-Based Assay - Set 3. [Related pubchem assays (depositor defined):AID1777, AID1785, AID1786, AID1966, AID2133, AID2136, AID2284, AID2285, AID2420]. Type of test: functional.
Mu-type opioid receptor, sequence (P35372 whole entry): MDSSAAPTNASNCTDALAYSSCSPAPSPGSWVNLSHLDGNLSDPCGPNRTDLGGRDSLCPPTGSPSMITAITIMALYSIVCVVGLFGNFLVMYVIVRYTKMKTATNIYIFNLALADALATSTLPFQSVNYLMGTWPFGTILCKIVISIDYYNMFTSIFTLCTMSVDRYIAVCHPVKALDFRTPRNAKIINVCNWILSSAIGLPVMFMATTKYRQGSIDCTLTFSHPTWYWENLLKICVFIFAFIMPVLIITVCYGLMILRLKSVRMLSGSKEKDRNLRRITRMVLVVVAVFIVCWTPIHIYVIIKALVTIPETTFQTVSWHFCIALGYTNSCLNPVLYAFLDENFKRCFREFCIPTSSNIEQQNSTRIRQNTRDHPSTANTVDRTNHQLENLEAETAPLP
The target of test [9] is T3, Kappa-type opioid receptor. The test can be described thus: SAR analysis of Antagonists of the Kappa Opioid Receptor (KOR) using an Image-Based Assay - Set 3. [Related pubchem assays (depositor defined):AID1777, AID1785]. Type of test: functional.
For the next test, the target named is Hexokinase (Trypanosoma brucei, UniProt Q38C41). The test can be described thus: Confirmation assay for inhibitors of Trypanosoma brucei hexokinase 1-Analogue-first series. [Related pubchem assays (depositor defined):AID1430, AID1632, AID2516, AID2560, AID2579, AID2600, AID449725, AID492951]. Type of test: functional.
Hexokinase, sequence (Q38C41 whole entry): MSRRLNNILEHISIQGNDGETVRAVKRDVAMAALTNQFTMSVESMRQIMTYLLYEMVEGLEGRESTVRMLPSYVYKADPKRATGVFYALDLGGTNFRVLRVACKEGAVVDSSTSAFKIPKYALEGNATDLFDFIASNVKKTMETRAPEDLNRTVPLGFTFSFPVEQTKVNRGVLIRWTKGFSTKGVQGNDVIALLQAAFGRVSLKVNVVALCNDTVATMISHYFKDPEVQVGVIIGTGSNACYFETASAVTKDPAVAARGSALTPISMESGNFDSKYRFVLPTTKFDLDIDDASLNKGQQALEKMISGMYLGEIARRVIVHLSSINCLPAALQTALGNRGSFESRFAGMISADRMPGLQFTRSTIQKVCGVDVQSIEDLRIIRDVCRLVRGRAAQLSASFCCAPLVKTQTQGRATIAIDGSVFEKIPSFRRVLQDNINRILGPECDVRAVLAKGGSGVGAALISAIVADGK
Another test has as its target Cysteine protease ATG4B (Homo sapiens, UniProt Q9Y4P1). Type of test: functional.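 Note: Fluorescence-based dose-response confirmation assay measuring inhibition of ATG4B activity.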
Test [10] deals with C-C chemokine receptor type 6 (Homo sapiens, UniProt P51684). The test can be described thus: antagonism of CCR6 beta-arrestin recruitment – cell-based, luminescent beta-arrestin readout, dose response (AID 504728). Type of test: functional.
C-C chemokine receptor type 6, sequence (P51684 whole entry): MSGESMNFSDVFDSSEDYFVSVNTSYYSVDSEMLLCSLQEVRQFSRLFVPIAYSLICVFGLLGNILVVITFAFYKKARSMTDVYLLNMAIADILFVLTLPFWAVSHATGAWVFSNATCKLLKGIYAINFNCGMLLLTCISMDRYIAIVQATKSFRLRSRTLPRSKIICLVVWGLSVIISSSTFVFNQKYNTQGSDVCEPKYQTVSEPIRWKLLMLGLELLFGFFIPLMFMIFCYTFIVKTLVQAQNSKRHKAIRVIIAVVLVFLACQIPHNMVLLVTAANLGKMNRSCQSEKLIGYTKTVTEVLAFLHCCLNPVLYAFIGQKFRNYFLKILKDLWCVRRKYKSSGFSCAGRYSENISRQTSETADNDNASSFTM
Test [11] addresses T4, Ubiquitin-conjugating enzyme E2 N (Homo sapiens, UniProt P61088).
T4 sequence (P61088 whole entry): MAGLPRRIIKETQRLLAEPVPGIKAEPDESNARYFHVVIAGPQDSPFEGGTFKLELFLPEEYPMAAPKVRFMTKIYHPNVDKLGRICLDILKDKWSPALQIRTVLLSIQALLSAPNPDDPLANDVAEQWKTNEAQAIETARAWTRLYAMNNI
Type of test: functional.

The target of another test is Large T antigen (Simian virus 40, UniProt P03070). Type of test: functional, Betapolyomavirus macacae.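 Note: Confirmatory-stage PubChem screen for compounds that inhibit SV40 T antigen.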
Large T antigen, sequence (P03070 whole entry): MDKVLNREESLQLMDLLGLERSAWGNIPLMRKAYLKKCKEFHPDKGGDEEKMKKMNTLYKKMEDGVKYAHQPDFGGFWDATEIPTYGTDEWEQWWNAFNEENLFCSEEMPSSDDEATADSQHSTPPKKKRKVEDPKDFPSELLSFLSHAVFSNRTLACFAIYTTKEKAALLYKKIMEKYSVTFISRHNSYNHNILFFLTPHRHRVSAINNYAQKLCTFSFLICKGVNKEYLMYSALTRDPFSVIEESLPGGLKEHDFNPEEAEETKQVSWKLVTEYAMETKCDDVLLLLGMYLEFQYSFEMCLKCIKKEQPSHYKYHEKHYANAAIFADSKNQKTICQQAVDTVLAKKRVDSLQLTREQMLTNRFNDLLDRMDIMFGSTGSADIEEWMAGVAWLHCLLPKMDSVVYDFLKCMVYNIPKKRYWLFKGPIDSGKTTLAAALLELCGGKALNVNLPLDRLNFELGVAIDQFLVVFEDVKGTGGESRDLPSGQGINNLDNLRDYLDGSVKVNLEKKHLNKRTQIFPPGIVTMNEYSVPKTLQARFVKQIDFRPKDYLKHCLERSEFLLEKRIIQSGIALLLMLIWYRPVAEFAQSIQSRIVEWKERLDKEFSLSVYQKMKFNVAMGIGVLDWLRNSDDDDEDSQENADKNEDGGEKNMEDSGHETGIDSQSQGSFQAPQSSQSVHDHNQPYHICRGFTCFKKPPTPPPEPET
The next test has as its target T5, Hexokinase HKDC1 (Homo sapiens, UniProt Q2TB90).
T5 sequence (Q2TB90 whole entry): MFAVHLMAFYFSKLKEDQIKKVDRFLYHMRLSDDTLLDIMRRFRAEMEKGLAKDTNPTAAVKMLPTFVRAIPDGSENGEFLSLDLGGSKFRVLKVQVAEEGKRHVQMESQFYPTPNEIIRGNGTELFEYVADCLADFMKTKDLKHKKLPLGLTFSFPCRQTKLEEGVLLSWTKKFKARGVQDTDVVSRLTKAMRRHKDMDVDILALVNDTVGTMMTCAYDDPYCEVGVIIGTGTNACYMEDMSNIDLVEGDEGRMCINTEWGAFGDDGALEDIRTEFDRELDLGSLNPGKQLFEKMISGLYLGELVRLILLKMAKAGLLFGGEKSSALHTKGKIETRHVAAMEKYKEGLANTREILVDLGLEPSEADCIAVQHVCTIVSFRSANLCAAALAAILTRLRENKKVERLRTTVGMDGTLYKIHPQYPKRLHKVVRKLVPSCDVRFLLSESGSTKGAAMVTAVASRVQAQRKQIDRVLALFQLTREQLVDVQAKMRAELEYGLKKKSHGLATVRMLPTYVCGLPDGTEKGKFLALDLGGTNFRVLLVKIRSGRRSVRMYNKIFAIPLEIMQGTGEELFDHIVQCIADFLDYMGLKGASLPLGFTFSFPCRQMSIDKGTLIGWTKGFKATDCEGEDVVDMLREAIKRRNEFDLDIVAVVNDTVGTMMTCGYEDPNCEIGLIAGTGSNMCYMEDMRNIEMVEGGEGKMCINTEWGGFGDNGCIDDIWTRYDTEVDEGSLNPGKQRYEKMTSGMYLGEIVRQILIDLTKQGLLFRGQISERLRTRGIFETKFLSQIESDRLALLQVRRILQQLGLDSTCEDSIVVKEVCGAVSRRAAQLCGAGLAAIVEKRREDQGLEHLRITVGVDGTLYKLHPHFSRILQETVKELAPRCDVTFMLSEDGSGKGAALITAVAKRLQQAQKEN
The test can be described thus: inhibition of HKDC1 glucose phosphorylation – biochemical, W721R variant, dose response (AID 504729). Type of test: functional.

The target of test [12] is Heat shock protein HSP 90-alpha (Homo sapiens, UniProt P07900). Type of test: functional, organism-based.
In the next test the target is Beta-galactosidase (Escherichia coli, UniProt Q8VNN2). The test can be described thus: detection-enzyme interference by beta-gal modulators – biochemical, E. coli enzyme, set 3, artefact control for CCR6 antagonist project, dose response (AID 504712). Type of test: functional.
The next test concerns the target Phospholipase A2 (Homo sapiens, UniProt P04054). Type of test: functional.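 Note: confirmatory dose-response counterscreen on phospholipase A2, testing hits that came from an ultra-high-throughput screen for ATG4B inhibitors.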
Test [13] addresses T4, Ubiquitin-conjugating enzyme E2 N. Type of test: functional. This is another data set of the same source.
The target of the next test is Bcl-2-related protein A1 (Mus musculus, UniProt Q07440). Type of test: functional.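 Note: confirmatory dose–response counterscreen on Bfl-1, used to check hits from a UBC13 polyubiquitin inhibitor campaign.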
Bcl-2-related protein A1, sequence (Q07440 whole entry): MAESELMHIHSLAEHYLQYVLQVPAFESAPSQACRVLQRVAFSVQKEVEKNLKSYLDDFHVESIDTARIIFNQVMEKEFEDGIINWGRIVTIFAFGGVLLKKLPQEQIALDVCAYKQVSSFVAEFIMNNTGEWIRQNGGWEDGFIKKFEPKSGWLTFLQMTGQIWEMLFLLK

The values below come from ChEMBL document CHEMBL1201862, “PubChem BioAssay data set” (2004).

Structures are written as SMILES. Structures can show the parent of a compound that is named as a salt. Calls of active or inactive are those of the source. A value given as a limit tells only on which side of the number the result lay.

Cysteine protease ATG4B, sequence (Q9Y4P1 whole entry): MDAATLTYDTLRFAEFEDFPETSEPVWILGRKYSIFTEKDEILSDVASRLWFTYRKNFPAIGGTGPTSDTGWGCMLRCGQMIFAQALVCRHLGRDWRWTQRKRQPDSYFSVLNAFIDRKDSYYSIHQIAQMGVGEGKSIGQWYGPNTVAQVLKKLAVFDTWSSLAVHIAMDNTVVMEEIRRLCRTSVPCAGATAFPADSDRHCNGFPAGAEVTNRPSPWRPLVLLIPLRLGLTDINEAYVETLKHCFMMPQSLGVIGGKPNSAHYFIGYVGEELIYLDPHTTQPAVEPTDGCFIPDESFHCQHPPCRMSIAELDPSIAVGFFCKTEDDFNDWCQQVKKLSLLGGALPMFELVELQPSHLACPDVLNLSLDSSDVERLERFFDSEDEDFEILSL
CAAX prenyl protease 2, sequence (Q03530 whole entry): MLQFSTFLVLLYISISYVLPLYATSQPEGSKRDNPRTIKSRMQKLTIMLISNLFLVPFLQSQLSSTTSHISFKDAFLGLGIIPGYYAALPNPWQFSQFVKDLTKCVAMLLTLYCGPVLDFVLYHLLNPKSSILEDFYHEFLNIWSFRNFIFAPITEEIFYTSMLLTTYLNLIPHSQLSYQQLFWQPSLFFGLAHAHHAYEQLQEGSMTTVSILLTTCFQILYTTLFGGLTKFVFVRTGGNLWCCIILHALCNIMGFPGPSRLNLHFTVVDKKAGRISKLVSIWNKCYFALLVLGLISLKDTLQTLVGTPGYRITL
Phospholipase A2, sequence (P04054 whole entry): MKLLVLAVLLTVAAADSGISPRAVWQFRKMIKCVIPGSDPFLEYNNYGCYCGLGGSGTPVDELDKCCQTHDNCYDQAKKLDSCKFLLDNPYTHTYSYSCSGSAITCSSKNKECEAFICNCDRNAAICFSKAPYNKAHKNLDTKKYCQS
Integrin alpha-4, sequence (P13612 whole entry): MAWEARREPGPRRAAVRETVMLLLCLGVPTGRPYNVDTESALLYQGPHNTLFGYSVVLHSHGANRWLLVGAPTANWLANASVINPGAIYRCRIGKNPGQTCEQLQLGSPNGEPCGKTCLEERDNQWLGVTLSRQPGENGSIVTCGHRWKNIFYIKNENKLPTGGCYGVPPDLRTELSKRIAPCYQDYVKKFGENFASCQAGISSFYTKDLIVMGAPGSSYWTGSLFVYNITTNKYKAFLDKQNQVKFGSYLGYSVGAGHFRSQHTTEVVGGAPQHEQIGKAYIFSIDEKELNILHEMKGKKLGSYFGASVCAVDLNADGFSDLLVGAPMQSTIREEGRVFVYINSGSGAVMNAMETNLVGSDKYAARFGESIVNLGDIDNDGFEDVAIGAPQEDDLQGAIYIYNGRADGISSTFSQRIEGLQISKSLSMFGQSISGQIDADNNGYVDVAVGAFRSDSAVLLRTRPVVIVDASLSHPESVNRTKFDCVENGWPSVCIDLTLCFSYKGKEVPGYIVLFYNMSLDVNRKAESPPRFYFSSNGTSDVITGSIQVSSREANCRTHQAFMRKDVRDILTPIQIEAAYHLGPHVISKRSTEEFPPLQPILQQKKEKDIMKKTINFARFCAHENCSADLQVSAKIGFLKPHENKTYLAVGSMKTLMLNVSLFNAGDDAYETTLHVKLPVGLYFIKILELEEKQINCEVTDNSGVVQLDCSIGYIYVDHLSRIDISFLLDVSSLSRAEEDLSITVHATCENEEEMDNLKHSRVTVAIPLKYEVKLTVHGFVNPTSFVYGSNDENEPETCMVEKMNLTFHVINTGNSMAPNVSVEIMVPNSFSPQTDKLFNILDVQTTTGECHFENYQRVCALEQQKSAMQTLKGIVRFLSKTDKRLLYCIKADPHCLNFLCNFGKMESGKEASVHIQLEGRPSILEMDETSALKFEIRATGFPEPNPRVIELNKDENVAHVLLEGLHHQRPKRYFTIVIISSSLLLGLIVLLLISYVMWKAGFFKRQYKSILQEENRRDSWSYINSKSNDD
Dual specificity protein phosphatase 3, sequence (P51452 whole entry): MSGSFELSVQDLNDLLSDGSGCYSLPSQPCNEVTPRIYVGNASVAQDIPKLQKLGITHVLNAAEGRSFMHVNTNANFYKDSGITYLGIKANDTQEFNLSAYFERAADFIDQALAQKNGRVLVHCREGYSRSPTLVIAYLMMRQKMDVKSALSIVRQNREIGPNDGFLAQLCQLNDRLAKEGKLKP

By EC50 is commonly meant the concentration needed to bring the measured effect to its halfway point. One may read the AC50 as the midpoint of the concentration-response curve, whichever way the signal moves. `Cc1ccc2c(c1)sc[n+]2Cc1ccccc1`: the EC50 is 11.9 µM (active) in [1]; 1.87 µM (active) in [2]; 46.1 µM (active) in [3]; 68.9 µM (inconclusive) in the test on H4; > 60 µM (not active) in test [4]. The AC50 at CAAX prenyl protease 2 is 18.6 µM (active).
For the molecule `COc1ccc([C@H]2CC(=O)C=C(c3ccc(OC)nc3)C2)cc1`, in the test on T-cell, the EC50 is 3.19 µM (active).
By IC50 is commonly meant the concentration needed to halve the response being measured. Regarding `CCc1ccc(C(=O)COC(=O)c2cccs2)cc1`, the IC50 at Coagulation factor XII is > 50 µM (inactive).
With `O=C1NC(=O)C2(N1)c1ccccc1-c1ccccc12`, the EC50 at Integrin alpha-4 was 0.334 µM (active).
On to `Cc1ccc(C(=O)NC2CCSc3ccccc32)cc1S(N)(=O)=O` (stereo unspecified), for which the IC50 in test [5] and in [6] was > 100 µM (inactive) throughout.
For `CCN(CCNC(=O)c1ccc(CNS(=O)(=O)c2ccc(Br)cc2)cc1)Cc1ccccc1`, the IC50 in [7] is > 32 µM (inactive); in test [8], 19.4 µM (inactive); on Mu-type opioid receptor, 8.46 µM (active); in [9] it was 4.82 µM (active).
For the molecule `O=C(CCn1sc2ccccc2c1=O)Nc1ccccc1`, the IC50 on Hexokinase is 19.8 µM (active).
As for `CCCCC(CC)CNC(=N)NC(=N)NCCCCCCNC(=N)NC(=N)NCC(CC)CCCC` (stereo unspecified) [ALEXIDINE HYDROCHLORIDE], the IC50 at Cysteine protease ATG4B was 3.89 µM (active); in test [10], 25.9 µM (inactive); in test [11] it was 1.73 µM (active); at Large T antigen, 29.1 µM (active); on Hexokinase HKDC1, 14.2 µM (active); at Beta-galactosidase it was > 66.6 µM (inactive). Moreover, the IC50 was 9.51 µM (active) on Phospholipase A2, 1.98 µM (active) in test [13] and 5.95 µM (active) at Bcl-2-related protein A1. Also, the AC50 in test [12] was 4.05 µM (active).
